Experimental findings from patent US9187415B2, “Sulfonamides as HIV protease inhibitors” (Merck Canada Inc., priority 2010, dated 2015) are described below.

For test [1], the system named is human immunodeficiency virus type 1. Kind of test: Acute Infection Assay (Spread). Format: cell-based, HIV-1. The text has this: Acute Infection Assay (“Spread”) data were generated in 10% FBS, and according to the methods disclosed by J. P. Vacca et al, “L-735,524: An orally bioavailable human immunodeficiency virus type 1 protease inhibitor,” Proc. Nati. Acad. Sci. USA, Vol. 91, pp. 4096-4100 (April 1994).

Test [2] has as its target T1, HIV-1 protease (wild type) (Human immunodeficiency virus type 1 group M subtype B, UniProt P04585).
T1 construct: made in house; host or cells: Escherichia coli
Nature of the test: Protease Inhibition Assay (Pepcleave), inhibition of microbial expressed HIV protease. In kind it is biochemical. How it is done: Assay for Inhibition of Microbial Expressed HIV Protease
Inhibition studies of the reaction of the protease (which was expressed in Eschericia coli) with a peptide substrate [Val-Ser-Gln-Asn-(betanaphtyl)Ala-Pro-Ile-Val]. The inhibitor is first preincubated with the HIV-1 protease (wild type) enzyme in assay buffer (50 mM sodium acetate, pH 5.5, 100 mM NaCl, and 0.1% BSA) for 30 minutes at room temperature. Substrate is added to 400 micromolar in a total volume of 80 microliters containing 10 picomolar HIV-1 protease and the reaction is incubated for 1 hour at 30° C. The reaction is quenched with the addition of 120 microliters of 10% phosphoric acid. The product formation is determined after separation of product and substrate on a Zorbax Eclipse XDB-C18 column connected to an Agilent 1100 high performance liquid chromatography system with fluorescence detection (excitation 270 nanometer and emission 330 nanometer). Alternatively, the inhibitor is preincubated with enzyme and substrate as described above, but in a total volume of 20 microliters containing 20 picomolar HIV-1 protease and the reaction is incubated for 1 hour at 30° C. The reaction is quenched with the addition of 30 microliters of 1 micromolar indinavir (indinavir is also used as an internal standard), and the product formation is determined after separation of product and substrate on a Zorbax Eclipse XDB-C18 column connected to an API 4000 mass spectrometer (Applied Biosystems) with multiple reaction monitoring (transitions were 644.5/428.9 and 615.4/422.2 (M1/M3) for product and indinavir respectively). The extent of inhibition of the reaction is determined from the peak area of the products. HPLC of the products, independently synthesized, provided quantitation standards and confirmation of the product composition.
Protease Inhibition Assay (“Pepcleave”) data were collected based on the wild-type HIV-1 protease enzyme. The assay monitors the cleavage of a 8-mer peptide (VSQN[β-Nal]PIV) where the tyrosine at P1 position is replaced by β-Naphthyl-alanine. Upon cleavage of the peptide by HIV-1 protease, the product is separated from substrate by HPLC column and detected at Ex.=270 nm/Em=330 nm.

Where [3] appears, read: Human immunodeficiency virus 1, 10% FBS, mean of at least two independent experiments, read-out: Spread IC95.
Setting [4] is: wild-type HIV-1 protease, mean of at least two independent experiments, read-out: Pepcleave Enzyme inhibition IC50.

Read-outs that look alike come from different tables or passages of the source.

Turning to `COC(=O)N[C@H](C(=O)Nc1ccccc1CC[C@@H](CO)N(CCC(C)C)S(=O)(=O)c1ccc(N)cc1)C(c1ccccc1)c1ccccc1` [Example 1, N-{2-[(3S)-3-{[(4-aminophenyl)sulfonyl](3-methylbutyl)amino}-4-hydroxybutyl]phenyl}-Nα-(methoxycarbonyl)-β-phenyl-L-phenylalaninamide], the IC95 in test [1] (setting [3]) stood at 74 nM. Also, the IC50 in test [2] (setting [4]) is 0.02 nM.

`COC(=O)N[C@H](C(=O)Nc1ccccc1CC[C@@H](CO)N(C(C)C)S(=O)(=O)c1ccc(N)cc1)C(c1ccccc1)c1ccccc1` [Example 2, N-{2-[(3S)-3-{[(4-aminophenyl)sulfonyl](propan-2-yl)amino}-4-hydroxybutyl]phenyl}-Nα-(methoxycarbonyl)-β-phenyl-L-phenylalaninamide]: in test [1] (setting [3]), the IC95 was 919 nM. Moreover, in test [2], 1.2 nM corresponded to half-maximal inhibition (IC50).

For `COC(=O)N[C@H](C(=O)Nc1ccccc1CC[C@@H](CO)N(CC1CC1)S(=O)(=O)c1ccc(N)cc1)C(c1ccccc1)c1ccccc1` [Example 3, N-{2-[(3S)-3-{[(4-aminophenyl)sulfonyl](cyclopropylmethyl)amino}-4-hydroxybutyl]phenyl}-Nα-(methoxycarbonyl)-β-phenyl-L-phenylalaninamide], in test [1] (Human immunodeficiency virus 1, read-out: Spread IC95), the IC95 is 307 nM. Also, in test [2] (setting [4]), the 50% inhibitory concentration (IC50) was 0.2 nM.

`COC(=O)N[C@H](C(=O)Nc1ccccc1CC[C@@H](CO)N(Cc1cnoc1)S(=O)(=O)c1ccc(N)cc1)C(c1ccccc1)c1ccccc1` [Example 4]: the IC95 in test [1] (setting [3]) stood at 838 nM. Moreover, the IC50 in test [2] came out at 0.2 nM.

In the case of `COC(=O)N[C@H](C(=O)Nc1ccccc1CC[C@@H](CO)N(Cc1cncnc1C)S(=O)(=O)c1ccc(N)cc1)C(c1ccccc1)c1ccccc1` [Example 5, N-{2-[(3S)-3-{[(4-aminophenyl)sulfonyl][(4-methylpyrimidin-5-yl)methyl]amino}-4-hydroxybutyl]phenyl}-Nα-(methoxycarbonyl)-β-phenyl-L-phenylalaninamide], in test [1] (setting [3]), the IC95 stood at 1190 nM. In test [2], this compound displayed an IC50 of 0.7 nM.

For the compound `COC(=O)N[C@H](C(=O)Nc1ccccc1CC[C@@H](CO)N(Cc1cn[nH]c1)S(=O)(=O)c1ccc(N)cc1)C(c1ccccc1)c1ccccc1` [Example 6, N-{2-[(3S)-3-{[(4-aminophenyl)sulfonyl](1H-pyrazol-4-ylmethyl)amino}-4-hydroxybutyl]phenyl}-Nα-(methoxycarbonyl)-β-phenyl-L-phenylalaninamide], in test [1] (setting [3]), the IC95 is 2340 nM. The compound also yielded an IC50 in test [2] of 0.07 nM.

For the compound `[2H]C([2H])([2H])C([2H])(C([2H])([2H])[2H])C([2H])([2H])N([C@H](CO)CCc1ccccc1NC(=O)[C@@H](NC(=O)OC)C(c1ccccc1)c1ccccc1)S(=O)(=O)c1ccc2ncsc2c1` [Example 8, N-(2-{(3S)-3-[(1,3-benzothiazol-6-ylsulfonyl)(2-methylpropyl-d9)amino]-4-hydroxybutyl}phenyl)-Nα-(methoxycarbonyl)-β-phenyl-L-phenylalaninamide], the IC95 in test [1] (setting [3]) came to 1550 nM. The same compound returned an IC50 in test [2] of 1.7 nM.

As for `COC(=O)N[C@H](C(=O)Nc1ccccc1CC[C@@H](CO)N(CCC(C)C)S(=O)(=O)c1ccc2ncsc2c1)C(c1ccccc1)c1ccccc1` [Example 9, N-(2-{(3S)-3-[(1,3-benzothiazol-6-ylsulfonyl)(3-methylbutyl)amino]-4-hydroxybutyl}phenyl)-Nα-(methoxycarbonyl)-β-phenyl-L-phenylalaninamide], in test [1] (setting [3]), the IC95 was determined as 957 nM. For the same compound, the IC50 in test [2] amounted to 0.3 nM.

As to `[2H]C([2H])([2H])C([2H])([2H])C([2H])([2H])N([C@H](CO)CCc1ccccc1NC(=O)[C@@H](NC(=O)OC)C(c1ccccc1)c1ccccc1)S(=O)(=O)c1ccc2ncsc2c1` [Example 10, N-(2-{(3S)-3-[(1,3-benzothiazol-6-ylsulfonyl)(propyl-d7)amino]-4-hydroxybutyl}phenyl)-Nα-(methoxycarbonyl)-β-phenyl-L-phenylalaninamide], in test [1] (setting [3]), the IC95 stood at 1190 nM. Besides, half-maximal inhibition in test [2] (IC50) was put at 0.7 nM.

For `COC(=O)N[C@H](C(=O)Nc1ccccc1CC[C@@H](CO)N(Cc1cn(C)nc1C)S(=O)(=O)c1ccc2ncsc2c1)C(c1ccccc1)c1ccccc1` [Example 11, N-{2-[(3S)-3-{(1,3-benzothiazol-6-ylsulfonyl)[(1,3-dimethyl-1H-pyrazol-4-yl)methyl]amino}-4-hydroxybutyl]phenyl}-Nα-(methoxycarbonyl)-β-phenyl-L-phenylalaninamide], the IC95 in test [1] (setting [3]) amounted to 683 nM. In addition, the IC50 in test [2] was found to be 0.05 nM.

Take `COC(=O)N[C@H](C(=O)Nc1ccccc1CC[C@@H](CO)N(CC1CC(F)(F)C1)S(=O)(=O)c1ccc2ncsc2c1)C(c1ccccc1)c1ccccc1` [Example 12, N-{2-[(3S)-3-{(1,3-benzothiazol-6-ylsulfonyl)[(3,3-difluorocyclobutyl)methyl]amino}-4-hydroxybutyl]phenyl}-Nα-(methoxycarbonyl)-β-phenyl-L-phenylalaninamide]: the IC95 in test [1] (setting [3]) worked out at 1530 nM. Also, in test [2] (setting [4]), the IC50 is 0.9 nM.

On to `COC(=O)N[C@H](C(=O)Nc1cc(F)ccc1CC[C@@H](CO)N(CC1CC(F)(F)C1)S(=O)(=O)c1ccc2ncsc2c1)C(c1ccccc1)c1ccccc1` [Example 13, N-{2-[(3S)-3-{(1,3-benzothiazol-6-ylsulfonyl)[(3,3-difluorocyclobutyl)methyl]amino}-4-hydroxybutyl]-5-fluorophenyl}-Nα-(methoxycarbonyl)-β-phenyl-L-phenylalaninamide], for which the IC95 in test [1] (setting [3]) was 1180 nM. Moreover, the concentration for half-maximal inhibition (IC50) in test [2] (setting [4]) was determined as 1.9 nM.

Turning to `COC(=O)N[C@@H](Cc1ccccc1Cl)C(=O)Nc1ccccc1CC[C@@H](CO)N(CCC(C)C)S(=O)(=O)c1ccc(N)cc1` [Example 14, N-{2-[(3S)-3-{[(4-aminophenyl)sulfonyl](3-rnethylbutyl)amino}-4-hydroxybutyl]phenyl}-2-chloro-Nα-(methoxycarbonyl)-L-phenylalaninamide], the IC95 in test [1] (setting [3]) is 1180 nM. The IC50 in test [2] (setting [4]) was 1.2 nM.

Regarding `COC(=O)N[C@@H](Cc1ccccc1Cl)C(=O)Nc1ccccc1CC[C@@H](CO)N(Cc1cn[nH]c1)S(=O)(=O)c1ccc(N)cc1` [Example 15, N-{2[(3S)-3-{[(4-aminophenyl)sulfonyl](1H-pyrazol-4-ylmethyl)amino}-4-hydroxybutyl]phenyl}-2-chloro-Nα-(methoxycarbonyl)-L-phenylalaninamide], in test [1] (setting [3]), the IC95 came out at 2440 nM. In test [2] (setting [4]), the IC50 was determined as 1.8 nM.

With `COC(=O)N[C@H](C(=O)Nc1cccnc1CC[C@@H](CO)N(Cc1cnoc1)S(=O)(=O)c1ccc2ncsc2c1)C(c1ccccc1)c1ccccc1` [Example 18, N-(2-{(3S)-3-[(1,3-benzothiazol-6-ylsulfonyl)(isoxazol-4-ylmethyl)amino]-4-hydroxybutyl}pyridin-3-yl)-Nα-(methoxycarbonyl)-β-phenyl-L-phenylalaninamide], the IC95 in test [1] (setting [3]) was determined as 755 nM. Besides, the IC50 in test [2] (setting [4]) was found to be 2.3 nM.

For `COC(=O)N[C@H](C(=O)Nc1cccnc1CC[C@@H](CO)N(Cc1cncnc1C)S(=O)(=O)c1ccc2ncsc2c1)C(c1ccccc1)c1ccccc1` [Example 19, N-[2[(3S)-3-{(1,3-benzothiazol-6-ylsulfonyl)[(4-methylpyrimidin-5-yl)methyl]amino)-4-hydroxybutyl]pyridin-3-yl]-Nα-(methoxycarbonyl)-β-phenyl-L-phenylalaninamide], in test [1] (setting [3]), the IC95 was found to be 766 nM. Moreover, the IC50 in test [2] (setting [4]) turned out to be 4.2 nM.

Take `COC(=O)N[C@H](C(=O)Nc1cnccc1CC[C@@H](CO)N(Cc1cncnc1C)S(=O)(=O)c1ccc2ncsc2c1)C(c1ccccc1)c1ccccc1` [Example 20, N-{4-[(3S)-3-{(1,3-benzothiazol-6-ylsulfonyl)[(4-methylpyrimidin-5-yl)methyl]amino}-4-hydroxybutyl]pyridin-3-yl}-Nα-(methoxycarbonyl)-β-phenyl-L-phenylalaninamide]: the IC95 in test [1] (setting [3]) turned out to be 2200 nM. For the same compound, in test [2] (setting [4]), the half-inhibitory concentration (IC50) is 3.5 nM.

Turning to `COC(=O)N[C@H](C(=O)Nc1c(SC[C@@H](CO)N(CCC(C)C)S(=O)(=O)c2ccc(N)cc2)cc[nH]c1=O)C(c1ccccc1)c1ccccc1` [Example 23, N-(4-{[(2R)-2-{[(4-aminophenyl)sulfonyl](3-methylbutyl)amino}-3-hydroxypropyl]sulfanyl}-2-oxo-1,2-dihydropyridin-3-yl)-Nα-(methoxycarbonyl)-β-phenyl-L-phenyl alaninamide], the IC95 in test [1] (setting [3]) turned out to be 2500 nM. For the same compound, the IC50 in test [2] (setting [4]) was determined as 0.06 nM.
